The values below are quoted from earlier work in US12521484B2, “Irrigation system and methods of use” (Osteal Therapeutics, Inc., priority 2023, dated 2026).

The conditions of data set [1]: instillation of 50,000-100,000 μg/mL once or twice daily into the joint space; multiple patients.
Data set [2] has as its system multiple common PJI organisms.

Consider `CN[C@H](CC(C)C)C(=O)N[C@H]1C(=O)N[C@@H](CC(N)=O)C(=O)N[C@H]2C(=O)N[C@H]3C(=O)N[C@H](C(=O)N[C@H](C(=O)O)c4cc(O)cc(O)c4-c4cc3ccc4O)[C@H](O)c3ccc(c(Cl)c3)Oc3cc2cc(c3O[C@@H]2O[C@H](CO)[C@@H](O)[C@H](O)[C@H]2O[C@H]2C[C@](C)(N)[C@H](O)[C@H](C)O2)Oc2ccc(cc2Cl)[C@H]1O` [vancomycin], for which, in data set [1], the serum concentrations entry is recorded as “exceeding safe limits”. In data set [2], the “minimum biofilm eradication concentration (MBEC)” value is listed as “greater than 4,000 μg/mL”.
